± gives the standard deviation of the averaged measurements.
Key:
[1] = compound: OCCCCC(F)(F)C(F)(F)C(F)(F)C(F)(F)F [4:4 Fluorotelomer alcohol]; test: level (log10 ratio to DMSO vehicle control); higher = higher biomarker level / cell amount than vehicle control; conditions: in DMSO
Description: (§1)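 BioMAP Diversity Plus panel of 12 human primary cell co-culture systems (3C, 4H, LPS, SAg, BT, BF4T, BE3C, CASM3C, HDF3CGF, KF3CT, MyoF, Mphg). Compounds were added 1 h before stimulation and left for 24 h (MyoF 48 h; BT 72 h for soluble read-outs or 6 d for IgG). Biomarkers were read by ELISA, cytotoxicity by SRB, PBMC viability and proliferation by Alamar Blue. Each well value was divided by the mean of 8 DMSO control wells on the same plate and log10 transformed; duplicate blinded samples were tested at 4 concentrations.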

[2] = compound: C=CC(=O)OCCC(F)(F)C(F)(F)C(F)(F)C(F)(F)C(F)(F)C(F)(F)C(F)(F)C(F)(F)F [8:2 Fluorotelomer acrylate]; test: as above; conditions: in DMSO
Description: as §1

| Test System | level (log10) ([1]; 6700 nM) | level (log10) ([1]; 20000 nM) | level (log10) ([1]; 60000 nM) | level (log10) ([2]; 6700 nM) | level (log10) ([2]; 20000 nM) | level (log10) ([2]; 60000 nM) |
| --- | --- | --- | --- | --- | --- | --- |
| 4H:VEGFR2 | -0.0535 ± 0.036 | -0.0665 ± 0.005 | -0.0205 ± 0.047 | 0.019 ± 0.024 | 0.0175 ± 0.026 | 0.016 ± 0.04 |
| 4H:CCL2/MCP-1 | 0.0135 ± 0.011 | -0.016 ± 0.023 | 0.023 ± 0.055 | -0.025 ± 0.018 | -0.016 ± 0.023 | 0.012 ± 0.051 |
| 4H:SRB | -0.003 ± 0.013 | 0 ± 0.018 | -0.001 ± 0.023 | -0.0045 ± 0.019 | -0.0035 ± 0.005 | 0.01 |
| LPS:sTNF-alpha | 0.0195 ± 0.11 | 0.0205 ± 0.12 | 0.0155 ± 0.14 | -0.0245 ± 0.025 | -0.029 ± 0.027 | -0.0175 ± 0.012 |
| BT:Secreted IgG | 0.01 ± 0.024 | 0.0045 ± 0.021 | -0.0055 ± 0.037 | -0.0205 ± 0.012 | -0.041 ± 0.031 | -0.11 ± 0.13 |
| BT:sTNF-alpha | -0.0875 ± 0.033 | -0.046 ± 0.13 | -0.0085 ± 0.17 | 0.128 ± 0.0057 | 0.034 ± 0.027 | 0.159 ± 0.14 |
| BF4T:uPA | -0.0125 ± 0.0078 | -0.015 ± 0.0028 | 0.0105 ± 0.04 | -0.0405 ± 0.039 | -0.033 ± 0.025 | -0.023 ± 0.031 |
| BF4T:CD54/ICAM-1 | -0.0055 ± 0.0035 | -0.0085 ± 0.011 | 0.0025 ± 0.0021 | -0.0145 ± 0.013 | -0.026 ± 0.0042 | -0.0285 ± 0.026 |
| LPS:CD106/VCAM-1 | -0.001 ± 0.011 | 0.0045 ± 0.018 | 0.003 ± 0.02 | -0.029 ± 0.013 | -0.05 ± 0.013 | -0.053 ± 0.0099 |
| BE3C:HLA-DR | -0.0005 ± 0.018 | -0.0075 ± 0.0064 | -0.0035 ± 0.016 | -0.0045 ± 0.011 | 0.009 ± 0.017 | 0.019 ± 0.034 |
| BF4T:Keratin 8/18 | 0.012 ± 0.0028 | -0.001 ± 0.0014 | 0.009 ± 0.034 | -0.014 ± 0.0042 | -0.0045 ± 0.00071 | 0.0115 ± 0.015 |
| BE3C:CD87/uPAR | 0.0075 ± 0.03 | -0.025 ± 0.016 | 0.0065 ± 0.033 | 0.03 ± 0.041 | 0.027 ± 0.035 | 0.0595 ± 0.049 |
| BE3C:EGFR | 0.025 ± 0.0085 | 0.022 ± 0.038 | 0.02 ± 0.065 | -0.0155 ± 0.0021 | -0.015 ± 0.013 | 0.003 ± 0.025 |
| BF4T:MMP-9 | 0.0045 ± 0.013 | -0.0015 ± 0.013 | 0.0275 ± 0.06 | -0.0255 ± 0.0064 | -0.0215 ± 0.012 | -0.021 ± 0.042 |
| 3C:SRB | -0.0075 ± 0.025 | 0.004 ± 0.025 | 0.0095 ± 0.032 | -0.001 ± 0.03 | 0.008 ± 0.018 | 0.0075 ± 0.005 |
| BF4T:MMP-1 | 0.0075 ± 0.018 | 0.0045 ± 0.025 | 0.009 ± 0.03 | 0.002 ± 0.0057 | 0.0025 ± 0.0021 | 0.0175 ± 0.022 |
| 3C:CXCL8/IL-8 | -0.029 ± 0.0085 | -0.031 ± 0.0057 | 0.0005 ± 0.0078 | 0.009 ± 0.0057 | 0.012 ± 0.035 | 0.0555 ± 0.049 |

| Test System | level (log10) ([1]; 6700 nM) | level (log10) ([1]; 20000 nM) | level (log10) ([1]; 60000 nM) | level (log10) ([2]; 6700 nM) | level (log10) ([2]; 20000 nM) | level (log10) ([2]; 60000 nM) |
| --- | --- | --- | --- | --- | --- | --- |
| SAg:CXCL9/MIG | 0.0015 ± 0.0021 | -0.006 ± 0.0071 | 0.0045 ± 0.012 | -0.0065 ± 0.0035 | -0.017 ± 0.0014 | 0.009 ± 0.0099 |
| BE3C:CXCL11/I-TAC | -0.013 ± 0.0028 | -0.0125 ± 0.00071 | -0.0025 ± 0.015 | -0.019 ± 0.011 | -0.0115 ± 0.013 | 0.003 ± 0.011 |
| LPS:CD69 | -0.0335 ± 0.016 | -0.0135 ± 0.015 | -0.0135 ± 0.015 | 0.012 ± 0.054 | -0.044 ± 0.05 | -0.052 ± 0.061 |
| BT:sIL-17F | -0.0645 ± 0.0092 | -0.107 ± 0.015 | -0.161 ± 0.15 | -0.018 ± 0.061 | -0.0565 ± 0.022 | -0.03 ± 0.014 |
| LPS:CD142/Tissue Factor | 0.003 ± 0.027 | 0.031 ± 0.027 | -0.0095 ± 0.023 | 0.0375 ± 0.0035 | 0.0245 ± 0.044 | 0.0085 ± 0.03 |
| 4H:CD62P/P-selectin | 0.023 ± 0.0028 | 0.019 ± 0.013 | 0.0115 ± 0.005 | -0.018 ± 0.0028 | -0.092 ± 0.0028 | -0.047 ± 0.064 |
| 4H:CD106/VCAM-1 | 0 ± 0.0057 | -0.01 ± 0.0028 | 0.005 ± 0.0028 | -0.0045 ± 0.035 | -0.023 ± 0.051 | -0.0255 ± 0.026 |
| BF4T:CCL2/MCP-1 | 0.0115 ± 0.044 | 0.007 ± 0.024 | 0.048 ± 0.099 | -0.007 ± 0.038 | -0.0265 ± 0.015 | -0.026 ± 0.041 |
| LPS:CD62E/E-Selectin | -0.0015 ± 0.033 | -0.0135 ± 0.028 | -0.012 ± 0.0099 | 0.002 ± 0.011 | 0 ± 0.011 | 0.019 ± 0.014 |
| BT:PBMC Cytotoxicity | -0.0265 ± 0.0064 | -0.035 ± 0.0014 | -0.0195 ± 0.064 | 0.011 ± 0.018 | -0.0035 ± 0.035 | -0.021 ± 0.079 |
| 3C:CD87/uPAR | -0.018 ± 0.057 | -0.0155 ± 0.005 | 0.012 ± 0.0014 | 0.007 ± 0.027 | -0.0065 ± 0.025 | -0.0025 ± 0.036 |
| 4H:CCL26/Eotaxin-3 | -0.017 ± 0.021 | -0.0345 ± 0.0021 | -0.025 ± 0.011 | 0.0235 ± 0.0021 | -0.012 ± 0.018 | 0.01 ± 0.048 |
| BF4T:CXCL8/IL-8 | -0.013 ± 0.021 | 0.018 ± 0.0057 | 0.0185 ± 0.005 | -0.0395 ± 0.021 | -0.017 ± 0.028 | -0.004 ± 0.017 |
| BT:B cell Proliferation | 0.0045 ± 0.018 | 0.005 ± 0.027 | -0.0015 ± 0.016 | 0.0155 ± 0.0021 | 0.0035 ± 0.00071 | -0.0005 ± 0.04 |
| BF4T:CD90 | -0.009 ± 0.013 | -0.0155 ± 0.012 | 0.0005 ± 0.018 | -0.0205 ± 0.018 | -0.019 ± 0.0099 | -0.0035 ± 0.021 |
| 3C:Proliferation | -0.018 ± 0.031 | 0.0115 ± 0.011 | -0.009 ± 0.054 | -0.035 ± 0.037 | -0.009 ± 0.048 | -0.0155 ± 0.005 |
| LPS:CCL2/MCP-1 | -0.006 ± 0.0071 | -0.002 ± 0.023 | -0.006 ± 0.011 | -0.0105 ± 0.0021 | -0.014 ± 0.0071 | 0.015 ± 0.041 |

— the supplement of paper PMC10331698
